Measured values from paper PMC8282797, “Strictly regulated agonist-dependent activation of AMPA-R is the key characteristic of TAK-653 for robust synaptic responses and cognitive improvement” (Scientific Reports, 2021).
“Also recorded” adds a separate entry of the source.

Columns and labels:
rats [1] = test: Seizure and abnormal behavior of LY451646 and AMPA in rats; assay type: in vivo, rat; conditions: i.p.
BDNF mRNA = BDNF mRNA expression in mouse hippocampus; assay type: in vivo; conditions: 3 and 10 mg/kg, p.o.
Protocol: Male ICR mice at 7 weeks old were treated with orally administered vehicle or TAK-653. For the repeated dose study, TAK-653 (0.3 mg/kg, p.o.) or vehicle was administered for 14 days. AMPA at designated doses was intravenously (i.v.) administered 1 h after oral administration. Three hours after i.v. administration of AMPA, right hippocampi were isolated from the mice by euthanasia and acutely frozen on dry ice. Total RNA from mouse hippocampus was extracted with RNeasy 96 kit (Qiagen, Hilden, Germany). Reverse transcription of total RNA was performed using the High-capacity cDNA Archive kit (Life Technologies, Carlsbad, CA). Real-time quantitative PCR was carried out using an ABI PRISM 7900HT sequence detection system (Life Technologies) using PCR reagents (Nippon Gene Co. Limited, Toyama, Japan). Primers used for BDNF analyses were as follows: BDNF forward primer, 5’-[…]-3’; BDNF reverse primer, 5’-[…]-3’; BDNF TaqMan probe, 5’-FAM- […]-TAMRA-3’. Primers used for Gadd45b analyses were as follows: Gadd45b forward primer, 5’-[…]-3’; Gadd45b reverse primer, 5’-GCGCCAGCCTCTGCAT-3’; Gadd45b TaqMan probe, 5’'-FAM-[…]-MGB-3’. […] Concentrations of GAPDH mRNA were used for internal controls and relative BDNF or Gadd45b mRNA/GAPDH mRNA levels were calculated.

rats [2] = test: Exposure margin against seizure after acute treatment; assay type: in vivo, rat; conditions: NOR improvement versus absence of seizure signs
Protocol: Thus, we decided to calculate the exposure safety margins of AMPA-R potentiators based on the cognitive improvement in the NOR test and the absence of signs of seizures. […] Thus, TAK-653 may have a wider exposure margin than LY451646 in rats.
The data were extracted from the studies conducted in accordance with the Good Laboratory Practice Regulation. […] The dose levels in the first study and second study were set at "100, 15 and 5 mg/kg, p.o." and "50, 15 and 5 mg/kg, p.o.", respectively. The dosing suspensions were administered into the stomach via a catheter in the morning at the dose volume of 5 mL/kg. Cage side observations to confirm tonic or […] convulsions were conducted before and at 1, 2, 4, 8 and 24 h after dosing in the first study and before and at 1, 4 and 24 h after dosing in the second study.
The Sprague–Dawley rats treated with orally administered TAK-653 were decapitated at each time point, and trunk blood was collected into 1.5-mL centrifuge tubes. Plasma was separated from the blood samples by centrifugation. The concentrations of TAK-653 in the plasma were determined using liquid chromatography/tandem mass spectrometry (LC/MS/MS).

cynomolgus monkeys = test: Delayed match-to-sample (DMTS) task; assay type: in vivo, cynomolgus monkey (Macaca fascicularis); conditions: 0.06 mg/kg, p.o., 6 h prior to testing
Protocol: DMTS tasks were performed using 4–6 years old male cynomolgus monkeys (Macaca fascicularis) weighing 4–6 kg as previously described, using a Cambridge Neuropsychological Test Automated Battery (CANTAB) system (CeNes, Cambridge, UK). Monkeys were maintained at 80% of free-feeding body weight throughout the experiment. Details are described in the Supplementary Information.
The experiment was performed using 4-6 years old male cynomolgus monkeys (Macaca fascicularis) weighing 4-6 kg. Monkeys were maintained at 80% of free-feeding body weight throughout the experiment. Four monkeys were trained to perform DMTS task using a Cambridge Neuropsychological Test Automated Battery (CANTAB) system (CeNes, Cambridge, UK) (Weed et al., 1999). Briefly, a trial was initiated by presentation of an image of a sample object on the screen. The monkey had to touch this object on the screen within 30 s. Then, the sample object was diminished from the screen, and a variable delay (0, 4, 8, and 16 s) was ensured. After the delay, the sample object was re-presented together with three other objects. The monkey had to choose the sample object from the four objects and a collect choice was reinforced by the food reward. The ITI was 5 s and one session consisted of 96 trials (24 trials of each delay of 0, 4, 8, and 16 s). […] The correct responses were recorded for all trials during test sessions. […]

BDNF protein levels = test: BDNF production in primary neurons; assay type: cell-based, rat; conditions: 24 h
Protocol: BDNF production in primary neurons was measured as previously described. Primary cultures of hippocampal neuronal cells at a density of 5 × 10^4 cells/well plated on poly-L-lysine coated 96-well plates (Sumitomo Bakelite) were treated with compounds in the presence or absence of AMPA (1 μM) and cultured in a humidified CO2 incubator with 5% CO2 at 37 °C for 24 h. The cells were washed once using phosphate buffered saline and were collected using 60 μL of lysis buffer (20 mM Tris-HCl at pH 8.0, 137 mM NaCl, 10% glycerol, 1% NP-40, 1% protease inhibitor cocktail [Sigma-Aldrich, St. Louis, MO]). Concentrations of BDNF protein were measured using BDNF ELISA Kits (Promega, Fitchburg, WI).
Primary cultures of hippocampal neuronal cells were prepared from fetal Sprague-Dawley rats at 19 days of gestation. Rat embryos were decapitated and their whole brains were isolated. Hippocampi were dissected in ice-cold Hanks' Balanced Salt Solutions (HBSS) under a microscope and then dispersed into cells using a neural cell dispersion kit (Sumitomo Bakelite Co., Ltd., Tokyo, Japan). The dissociated cells were suspended in Neurobasal medium containing B27 supplement (Thermo Fisher Scientific Inc.), 2 mM L-glutamine (Lonza, Basel, Switzerland), 100 U/mL penicillin (Lonza), 100 μg/mL streptomycin (Lonza) and 20 μg/mL gentamicin sulfate (Lonza). […]

Compound | Abnormal behavior (rats [1]; 10 mg/kg) | Seizure (rats [1]; 30 mg/kg) | BDNF mRNA levels in hippocampus (BDNF mRNA; AMPA (3.5 mg/kg, i.v.)-treated mice) | BDNF mRNA levels in hippocampus (BDNF mRNA; compound alone) | Margin based on AUCplasma (rats [2]) | Margin based on plasma Cmax (rats [2]) | DMTS accuracy at 16-s delay interval (cynomolgus monkeys) | BDNF protein levels (BDNF protein levels; compound alone at 1 μM) | BDNF protein levels (BDNF protein levels; in the presence of AMPA (1 μM))
Cc1onc(O)c1CC(N)C(=O)O (stereo not drawn) [AMPA, alpha-amino-3-hydroxy-5-methyl-4-isoxazole-propionic acid] | abnormal behavior such as head turning | induced seizure | – | – | – | – | – | – | –
CC1=CN2CCS(=O)(=O)N=C2C(c2ccc(OC3CCCCC3)cc2)=N1 [TAK-653, 9-[4-(Cyclohexyloxy)phenyl]-7-methyl-3,4-dihydropyrazino[2,1-c][1,2,4]thiadiazine 2,2-dioxide] | – | – | significantly increased | did not increase | 1017 fold | 419 fold | significantly ameliorated; also recorded: significantly increased | slightly increased | robustly increased
